According to PMC7897990, “TriTOX: A novel Trichomonas vaginalis assay platform for high-throughput screening of compound libraries” (International Journal for Parasitology: Drugs and Drug …, 2021):
Read-outs that look alike come from different tables or passages of the source. Starred links: 1 amine or outer side, 2 acyl side, 3 side chain; linkers in the order of their positions; H or OH if unused. Positions of bridges follow the written chain, without caps; N, C: chain ends. Non-standard residues stand in square brackets, D forms with d. Residues, ends and D or L forms follow the SMILES beside them. Chains are numbered I, II in the order given. *: point of attachment. Actinocin(9to1) = Cc1c2oc3c(C)ccc(C(=O)[*:1])c3nc-2c(C(=O)[*:2])c(N)c1=O; Orn(4R-OH,5R-OH) = O=C([C@H](C[C@@H](O)[C@@H](O)N[*:3])N[*:1])[*:2]; Tetradecanoyl(10R,12S-Me2) = CC[C@H](C)C[C@H](C)CCCCCCCCC(=O)*; hTyr(3S-OH,4S-OH) = N[C@H](C(=O)O)[C@H](O)[C@@H](O)c1ccc(O)cc1; NMePhe(4-NMe2) = CN[C@@H](Cc1ccc(N(C)C)cc1)C(=O)O; Gln(3R-OH) = NC(=O)C[C@@H](O)[C@H](N)C(=O)O; Pro(3S-OH) = O=C(O)[C@H]1NCC[C@@H]1O; Pip(4-oxo) = O=C1CCN[C@H](C(=O)O)C1; Picolinoyl(3-OH) = O=C(c1ncccc1O)*; Hyp = O=C(O)[C@@H]1C[C@@H](O)CN1; Phg = N[C@H](C(=O)O)c1ccccc1; NMeV = CN[CH](C(=O)O)C(C)C; dAbu = CC[C@@H](N)C(=O)O; GABA = NCCCC(=O)O; Sar = CNCC(=O)O

How the values were obtained:
[1] = test system: nontumorigenic neonatal foreskin fibroblast (NFF) cell line; conditions: NFF_NS1 screen 5 µg/mL, single concentration
[2] = test system: Trichomonas vaginalis G3 trophozoites; conditions: for T. vaginalis HTS result in words: 384-well, 25 μL, 10,000 cells/mL, 48 h, biological duplicates, hit = >50% inhibition; for T.vaginalis_Absorbance_Rep1: replicate 1, raw absorbance; for T.vaginalis_Absorbance_Rep2: replicate 2, raw absorbance
[3] = HTS single concentration, parasite screen 1 µg/mL, replicate 1
[4] = HTS single concentration, parasite screen 1 µg/mL, replicate 2
[5] = HTS replicate 1, parasite screen 1 µg/mL
[6] = HTS replicate 2, parasite screen 1 µg/mL
[7] = HTS, parasite screen at 1 µg/mL, replicate 1
[8] = HTS, parasite screen at 1 µg/mL, replicate 2
[9] = HTS, parasite screen at 1 µg/mL

CCC(=O)CCCCCC1NC(=O)C2CCCCN2C(=O)C(C(C)CC)NC(=O)C(Cc2cn(OC)c3ccccc23)NC1=O (stereo not shown) [BIA-A1006]
NFF_Activity [1]: I (otherwise these were reported as inactive (I))
T.vaginalis_%inb_Rep1 [2, 3]: 13.25%
T.vaginalis_%inb_Rep2 [2, 4]: 17.28%

COC(=O)c1cc(O)cc(OC)c1Oc1cc(C)cc(O)c1C(=O)O [BIA-A1008]
NFF_Activity [1]: I (otherwise these were reported as inactive (I))
T.vaginalis_%inb_Rep1 [2, 3]: 16.05%
T.vaginalis_%inb_Rep2 [2, 4]: 13.59%

COc1oc([C@H]2C/C(=C/C(C)=C/c3ccc([N+](=O)[O-])cc3)CO2)c(C)c(=O)c1C [BIA-A1009]
NFF_Activity [1]: I (otherwise these were reported as inactive (I))
T.vaginalis_%inb_Rep1 [2, 3]: 12.82%
T.vaginalis_%inb_Rep2 [2, 4]: 5.78%

CC[C@H](C)[C@H]1O[C@]2(C=C[C@@H]1C)C[C@@H]1C[C@@H](C/C=C(\C)[C@@H](O[C@H]3C[C@H](OC)[C@@H](O[C@H]4C[C@H](OC)[C@@H](O)[C@H](C)O4)[C@H](C)O3)[C@@H](C)/C=C/C=C3\CO[C@@H]4[C@H](O)C(C)=C[C@@H](C(=O)O1)[C@]34O)O2 [BIA-A1010]
NFF_Activity [1]: I (otherwise these were reported as inactive (I))
T.vaginalis_%inb_Rep1 [2, 3]: 14.32%
T.vaginalis_%inb_Rep2 [2, 4]: 14.17%

CO[C@H]1C[C@H](O[C@H]2[C@H](C)O[C@@H](O[C@@H]3/C(C)=C/C[C@@H]4C[C@@H](C[C@]5(C=C[C@H](C)[C@@H](C(C)C)O5)O4)OC(=O)[C@@H]4C=C(C)[C@@H](O)[C@H]5OC/C(=C\C=C\[C@@H]3C)[C@]54O)C[C@@H]2OC)O[C@@H](C)[C@@H]1O [BIA-A1011]
NFF_Activity [1]: I (otherwise these were reported as inactive (I))
T.vaginalis_%inb_Rep1 [2, 3]: 14.65%
T.vaginalis_%inb_Rep2 [2, 4]: 18.51%

CC(/C=C/[C@@]1(C)[C@H](C)CCC(=O)[C@@H]1C)=C\Cc1c(O)c(Cl)c(C)c(C=O)c1O [BIA-A1115]
NFF_Activity [1]: I (otherwise these were reported as inactive (I))
T.vaginalis_%inb_Rep1 [2, 3]: 16.42%
T.vaginalis_%inb_Rep2 [2, 4]: 18.08%

CCC(=O)Nc1c2sscc-2n(C)c1=O [BIA-A1120]
NFF_Activity [1]: A (active (A) compounds having >25% inhibitory activity)
T.vaginalis_%inb_Rep1 [2, 3]: 100.00%
T.vaginalis_%inb_Rep2 [2, 4]: 82.07%

Cc1c2oc3c(C)ccc(C(=O)NC4C(=O)NC(C(C)C)C(=O)N5CCCC5C(=O)N(C)CC(=O)N(C)C(C(C)C)C(=O)OC4C)c3nc-2c(C(=O)NC2C(=O)NC(C(C)C)C(=O)N3CCCC3C(=O)N(C)CC(=O)N(C)C(C(C)C)C(=O)OC2C)c(N)c1=O (stereo not shown) [BIA-A1185] (I: TVP[Sar][NMeV] / II: TVP[Sar][NMeV]; ester I:1-I:C, II:1-II:C; linker I:N-II:N via Actinocin(9to1); configuration not given here)
NFF_Activity [1]: I (otherwise these were reported as inactive (I))
T.vaginalis_%inb_Rep1 [2, 3]: 0.00%
T.vaginalis_%inb_Rep2 [2, 4]: 40.20%

COc1ccc(C[C@H]2NC[C@H](O)[C@H]2OC(C)=O)cc1 [BIA-A1215]
NFF_Activity [1]: I (otherwise these were reported as inactive (I))
T.vaginalis_%inb_Rep1 [2, 3]: 63.76%
T.vaginalis_%inb_Rep2 [2, 4]: 97.54%

CC1OC(OC2C(CO)OC(OC3C(CO)OC(O)C(O)C3O)C(O)C2O)C(O)C(O)C1NC1C=C(CO)C(O)C(O)C1O (stereo not shown) [BIA-A1231]
NFF_Activity [1]: I (otherwise these were reported as inactive (I))
T.vaginalis_%inb_Rep1 [2, 3]: 14.16%
T.vaginalis_%inb_Rep2 [2, 4]: 6.22%

CC(=O)OC[C@@]1(C)[C@@H]2C[C@H](OC(C)=O)[C@@]3(C)Oc4cc(-c5ccccc5)oc(=O)c4[C@H](O)[C@@H]3[C@@]2(C)CC[C@@H]1OC(C)=O [Phenylpyropene A]
T.vaginalis_%inb_Rep1 [2, 5]: 13.03%
T.vaginalis_%inb_Rep2 [2, 6]: 14.11%

Cc1ncc(-c2c[nH]c3ccccc23)o1 [Pimprinine]
T.vaginalis_%inb_Rep1 [2, 5]: 11.61%
T.vaginalis_%inb_Rep2 [2, 6]: 11.80%

CN(C)C1C(=O)C(C(=O)NCN2CCN(CCO)CC2)=C(O)C2(O)C(=O)C3=C(O)c4c(O)cccc4C(C)(O)C3CC12 (stereo not shown) [Pipacycline]
T.vaginalis_%inb_Rep1 [2, 5]: 11.66%
T.vaginalis_%inb_Rep2 [2, 6]: 12.19%

Cn1c(=O)c(=Cc2ccccc2)[nH]c(=O)c1=Cc1ccccc1 [Piperafizine A]
T.vaginalis_%inb_Rep1 [2, 5]: 11.87%
T.vaginalis_%inb_Rep2 [2, 6]: 11.10%

CC[C@@H]1CCN[C@H](C(=O)N[C@@H]([C@H]2O[C@H](SC)[C@H](O)[C@@H](O)[C@H]2O)[C@H](C)Cl)C1 [Pirlimycin]
T.vaginalis_%inb_Rep1 [2, 5]: 5.02%
T.vaginalis_%inb_Rep2 [2, 6]: 5.77%

COc1cc(CC2C(=O)OCC2Cc2ccc3c(c2)OCO3)ccc1O (stereo not shown) [Pluviatolide]
T.vaginalis_%inb_Rep1 [2, 5]: 12.12%
T.vaginalis_%inb_Rep2 [2, 6]: 14.37%

CC[C@H](C)C[C@H](C)CCCCCCCCC(=O)N[C@H]1C[C@@H](O)[C@@H](O)NC(=O)[C@@H]2[C@@H](O)CCN2C(=O)[C@H]([C@H](O)CC(N)=O)NC(=O)[C@H]([C@H](O)[C@@H](O)c2ccc(O)cc2)NC(=O)[C@@H]2C[C@@H](O)CN2C(=O)[C@H]([C@@H](C)O)NC1=O [Pneumocandin B0] ({Tetradecanoyl(10R,12S-Me2)}-[Orn(4R-OH,5R-OH)]T[Hyp][hTyr(3S-OH,4S-OH)][Gln(3R-OH)][Pro(3S-OH)]; lactam 1-C)
T.vaginalis_%inb_Rep1 [2, 5]: 10.50%
T.vaginalis_%inb_Rep2 [2, 6]: 8.92%

CCC(O)C(C)(O)C1OC(=O)C(C)C(OC2CC(C)(OC)C(O)C(C)O2)C(C)C(OC2OC(C)CC(N(C)C)C2O)C2(C)CC(C)=C(O2)C1C (stereo not shown) [Pseudoerythromycin A enol ether]
T.vaginalis_%inb_Rep1 [2, 5]: 13.84%
T.vaginalis_%inb_Rep2 [2, 6]: 5.58%

CN1CCC2(c3cccc4c3NC3N(C)CCC43c3cccc4c3NC3N(C)CCC43C34CCN(C)C3Nc3c(C56CCN(C)C5Nc5ccccc56)cccc34)c3ccccc3NC12 (stereo not shown) [Psychotridine]
T.vaginalis_%inb_Rep1 [2, 5]: 9.23%
T.vaginalis_%inb_Rep2 [2, 6]: 6.15%

O=c1c2cccn2c(=O)c2cccn12 [Pyrocoll]
T.vaginalis_%inb_Rep1 [2, 5]: 15.47%
T.vaginalis_%inb_Rep2 [2, 6]: 11.29%

Nc1cc2nc3ccccc3oc-2cc1=O [Questiomycin A]
T.vaginalis_%inb_Rep1 [2, 5]: 16.02%
T.vaginalis_%inb_Rep2 [2, 6]: 12.32%

CCC(C)C1NC(=O)c2c1n(C)c1ccccc1c2=O (stereo not shown) [Quinolactacin A1]
T.vaginalis_%inb_Rep1 [2, 5]: 10.96%
T.vaginalis_%inb_Rep2 [2, 6]: 16.33%

CC(=O)c1c(O)c(C(C)=O)c(O)c(C(C)=O)c1O [Triacetylphloroglucinol]
T.vaginalis_%inb_Rep1 [2, 7]: 10.38%
T.vaginalis_%inb_Rep2 [2, 8]: 10.12%

CCCNC[C@]1(O)[C@H](C)O[C@@H](O[C@H]2[C@H](C)[C@@H](O[C@@H]3O[C@H](C)C[C@H](N(C)C)[C@H]3O)[C@](C)(O)C[C@@H](C)CN[C@H](C)[C@@H](O)[C@](C)(O)[C@@H](CC)OC(=O)[C@@H]2C)C[C@@]1(C)OC [Tulathromycin]
T.vaginalis_%inb_Rep1 [2, 7]: 10.12%
T.vaginalis_%inb_Rep2 [2, 8]: 14.75%

CC(C)=CC(=O)CC(C)c1ccc(C)cc1 (stereo not shown) [Turmerone]
T.vaginalis_%inb_Rep1 [2, 7]: 9.33%
T.vaginalis_%inb_Rep2 [2, 8]: 14.44%

C/C=C(\C)c1cc(O)c(C)c2c1Oc1cc(O)cc(C)c1C(=O)O2 [Unguinol]
T.vaginalis_%inb_Rep1 [2, 7]: 8.70%
T.vaginalis_%inb_Rep2 [2, 8]: 4.39%

CC(C)C[C@@H]1NC(=O)[C@@H](C(C)C)NC(=O)[C@@H](C)NC(=O)CCCNC(=O)[C@@H](Cc2c[nH]c3ccccc23)NC(=O)[C@@H](C)NC(=O)[C@@H](C(C)C)NC1=O [Unguisin B] (cyclo([GABA][dA][dV]L[dV][dA][dW]))
T.vaginalis_%inb_Rep1 [2, 7]: 10.17%
T.vaginalis_%inb_Rep2 [2, 8]: 14.69%

CC[C@H]1NC(=O)[C@@H](NC(=O)c2ncccc2O)[C@@H](C)OC(=O)[C@H](c2ccccc2)NC(=O)[C@@H]2CC(=O)CCN2C(=O)[C@H](Cc2ccc(N(C)C)cc2)N(C)C(=O)[C@@H]2CCCN2C1=O [Virginiamycin B] ({Picolinoyl(3-OH)}-T[dAbu]P[NMePhe(4-NMe2)][Pip(4-oxo)][Phg]; ester 1-C)
T.vaginalis_%inb_Rep1 [2, 7]: 8.39%
T.vaginalis_%inb_Rep2 [2, 8]: 11.09%

CCC1NC(=O)C(NC(=O)c2ncccc2O)C(C)OC(=O)C(c2ccccc2)NC(=O)C2CC(=O)CCN2C(=O)C(Cc2ccccc2)N(C)C(=O)C2CCCN2C1=O (stereo not shown) [Virginiamycin S1]
T.vaginalis_%inb_Rep1 [2, 7]: 9.96%
T.vaginalis_%inb_Rep2 [2, 8]: 3.72%

O=c1[nH]c2ccccc2c(-c2cccc(O)c2)c1O [Viridicatol]
T.vaginalis_%inb_Rep1 [2, 7]: 6.71%
T.vaginalis_%inb_Rep2 [2, 8]: 14.99%

COc1ccc(C[C@H]2NC[C@H](O)[C@H]2OC(C)=O)cc1 [anisomycin, reference compound]
T. vaginalis HTS result in words [2]: supported the anti-trichomonal activity

COc1ccc2nc(C(=O)N[C@@H]3COC(=O)[C@H](C(C)(C)O)N(C)C(=O)CN(C)C(=O)CNC(=O)[C@@H]4[C@@H](OC(C)=O)CC=NN4C(=O)[C@H](NC(=O)c4nc5ccc(OC)cc5cc4O)COC(=O)[C@H](C(C)(C)O)N(C)C(=O)CN(C)C(=O)CNC(=O)[C@@H]4[C@@H](OC(C)=O)CC=NN4C3=O)c(O)cc2c1 [luzopeptin A, reference compound]
T. vaginalis HTS result in words [2]: partial hits

CN[C@@H]1C[C@H]2O[C@@](C)([C@@H]1OC)n1c3ccccc3c3c4c(c5c6ccccc6n2c5c31)C(=O)NC4 [staurosporine, reference compound]
T. vaginalis HTS result in words [2]: supported the anti-trichomonal activity

CC(=O)Nc1c2sscc-2n(C)c1=O [thiolutin, reference compound]
T. vaginalis HTS result in words [2]: supported the anti-trichomonal activity

O=C(O)c1c(=O)cccc2ssc12 [tropodithietic acid, reference compound]
T. vaginalis HTS result in words [2]: partial hits
T.vaginalis_%inb_Rep1 [2, 7]: 11.01%
T.vaginalis_%inb_Rep2 [2, 8]: 97.50%

Elaiophylin
T.vaginalis_Absorbance_Rep1 [2, 9]: 0.954
T.vaginalis_Absorbance_Rep2 [2, 9]: 0.689

Enniatin A
T.vaginalis_Absorbance_Rep1 [2, 9]: 0.983
T.vaginalis_Absorbance_Rep2 [2, 9]: 0.865

Enniatin A1
T.vaginalis_Absorbance_Rep1 [2, 9]: 0.98
T.vaginalis_Absorbance_Rep2 [2, 9]: 0.8

Milbemycin oxime
T.vaginalis_%inb_Rep1 [2, 5]: 12.53%
T.vaginalis_%inb_Rep2 [2, 6]: 12.96%

Pyripyropene A
T.vaginalis_%inb_Rep1 [2, 5]: 11.61%
T.vaginalis_%inb_Rep2 [2, 6]: 12.83%

ikarugamycin [reference compound]
T. vaginalis HTS result in words [2]: supported the anti-trichomonal activity
